Data taken from patent US9730914B2, “3,5-diaminopyrazole kinase inhibitors” (Axikin Pharmaceuticals, Inc., priority 2014, dated 2017).

Key:
[1] = target: T1, kinase domain protein of RC kinase (RCK) (Homo sapiens, UniProt Q56UN5); assay: Kinase competition binding assay (Kd, qPCR readout), RC kinase; conditions: Kd class, read-out: RCK Activity Level
T1 construct: made in house; host or cells: E. coli BL21-derived host (T7 phage) or HEK-293
T1 sequence (Q56UN5 1061-1324 limits assumed): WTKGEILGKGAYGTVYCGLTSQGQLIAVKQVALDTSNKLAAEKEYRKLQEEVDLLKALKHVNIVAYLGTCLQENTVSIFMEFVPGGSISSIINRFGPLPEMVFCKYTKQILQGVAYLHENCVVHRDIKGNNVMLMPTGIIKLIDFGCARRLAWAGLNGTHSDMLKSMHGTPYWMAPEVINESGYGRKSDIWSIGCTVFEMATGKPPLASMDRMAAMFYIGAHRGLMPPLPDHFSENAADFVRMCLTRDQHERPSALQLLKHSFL
Experimental: (§1) For most assays, kinase-tagged T7 phage strains were prepared in an E. coli host derived from the BL21 strain. E. coli were grown to log-phase and infected with T7 phage and incubated with shaking at 32° C. until lysis. The lysates were centrifuged and filtered to remove cell debris. The remaining kinases were produced in HEK-293 cells and subsequently tagged with DNA for quantitative PCR (qPCR) detection.
(§2) Streptavidin-coated magnetic beads were treated with biotinylated small molecule ligands for 30 minutes at room temperature to generate affinity resins for kinase assays. The liganded beads were blocked with excess biotin and washed with blocking buffer (SeaBlock (Pierce), 1% BSA, 0.05% Tween 20, 1 mM DTT) to remove unbound ligand and to reduce nonspecific binding. Binding reactions were assembled by combining kinases, liganded affinity beads, and test compounds in 1× binding buffer (20% SeaBlock, 0.17×PBS, 0.05% Tween 20, 6 mM DTT). All reactions were performed in polystyrene 96-well plates in a final volume of 0.135 mL. The assay plates were incubated at room temperature with shaking for 1 hour and the affinity beads were washed with wash buffer (1×PBS, 0.05% Tween 20). The beads were then re-suspended in elution buffer (1×PBS, 0.05% Tween 20, 0.5 μM non-biotinylated affinity ligand) and incubated at room temperature with shaking for 30 minutes. The kinase concentration in the eluates was measured by qPCR.
(§3) An 11-point 3-fold serial dilution of each test compound was prepared in 100% DMSO at 100× final test concentration and subsequently diluted to 1× in the assay (final DMSO concentration=1%). Most Kd values were determined using a compound top concentration=30,000 nM. If the initial Kd determined was <0.5 nM, (the lowest concentration tested), the measurement was repeated with a serial dilution starting at a lower top concentration. A more detailed description of this assay may be found in Fabian, M. A. et al. Nat. Biotechnol. 2005, 23, 329-336, which is incorporated herein in its entirety.
(§4) The biological results of inhibition of the kinase domain protein of RC kinase (RCK) and JAK2 and JAK3 are summarized in Tables 2 and 3, wherein A represents a Kd of <50 nM; B represents 50 nM<Kd<100 nM; C represents 100 nM<Kd<1000 nM; and D represents a Kd>1000 nM.

JAK2 = target: T2, JAK2 (Homo sapiens, UniProt O60674); assay: Kinase competition binding assay (Kd, qPCR readout), JAK2; conditions: for Kd: Kd class, JAK2, read-out: JAK2 Activity Level; for RCK:JAK2 selectivity ratio: ratio Kd (JAK2): Kd(RCK)
T2 construct: made in house; host or cells: E. coli BL21-derived host (T7 phage) or HEK-293
Experimental: as §1, §2, §3, §4
Additionally, RCK:JAK2 selectivity, as measured by the ratio Kd (JAK2): Kd(RCK) is represented as follows: A represents Kd (JAK2): Kd (RCK)>100; B represents 10<Kd(JAK2): Kd (RCK)<100; C represents 1<Kd (JAK2): Kd (RCK)<10; and D represents Kd(JAK2): Kd (RCK)<1.

JAK3 = target: T3, JAK3 (Homo sapiens, UniProt P52333); assay: Kinase competition binding assay (Kd, qPCR readout), JAK3; conditions: for Kd: Kd class, JAK3, read-out: JAK3 Activity Level; for RCK:JAK3 selectivity ratio: ratio Kd (JAK3): Kd (RCK)
T3 construct: made in house; host or cells: E. coli BL21-derived host (T7 phage) or HEK-293
Experimental: as §1, §2, §3, §4
Similarly, RCK:JAK3 selectivity, as measured by the ratio Kd (JAK3): Kd (RCK) is represented as follows: A represents Kd (JAK3): Kd (RCK)>100; B represents 10<Kd (JAK3): Kd (RCK)<100; C represents 1<Kd (JAK3): Kd (RCK)<10; and D represents Kd (JAK3): Kd(RCK)<1.

T3 sequence (P52333 811-1124 limits assumed): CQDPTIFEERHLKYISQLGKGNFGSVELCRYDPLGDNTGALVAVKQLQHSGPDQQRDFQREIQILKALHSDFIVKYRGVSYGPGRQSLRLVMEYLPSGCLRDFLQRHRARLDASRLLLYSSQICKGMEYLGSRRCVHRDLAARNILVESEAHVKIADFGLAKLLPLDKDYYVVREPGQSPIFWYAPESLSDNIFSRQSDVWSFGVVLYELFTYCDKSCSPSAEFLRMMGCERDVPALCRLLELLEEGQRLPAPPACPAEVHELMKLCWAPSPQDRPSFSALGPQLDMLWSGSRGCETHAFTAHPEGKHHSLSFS
T2 sequence (O60674 840-1132 limits assumed): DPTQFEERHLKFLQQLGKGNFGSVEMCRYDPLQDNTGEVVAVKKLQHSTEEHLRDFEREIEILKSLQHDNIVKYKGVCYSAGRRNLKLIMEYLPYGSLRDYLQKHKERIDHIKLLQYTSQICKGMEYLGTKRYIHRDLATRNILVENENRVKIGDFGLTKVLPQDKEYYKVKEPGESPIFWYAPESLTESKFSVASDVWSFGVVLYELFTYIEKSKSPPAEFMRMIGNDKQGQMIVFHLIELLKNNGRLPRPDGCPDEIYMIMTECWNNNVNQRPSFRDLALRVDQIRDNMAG

SMILES | Kd [1] [nM] | Kd (JAK2) [nM] | Kd (JAK3) [nM] | RCK:JAK2 selectivity ratio (JAK2) | RCK:JAK3 selectivity ratio (JAK3)
NC(=O)c1c(Nc2ccc(N3CCN(C(=O)N4CCCC4)CC3)cc2)n[nH]c1NCc1ccc(O)cc1 [reference compound] | < 50 | < 50 | < 50 | D (D represents Kd(JAK2): Kd (RCK)<1) | C (C represents 1<Kd (JAK3): Kd (RCK)<10)
Cc1cc(CNc2[nH]nc(Nc3ccc(-c4cnco4)cc3)c2C(N)=O)cc(C)c1O [Compound 38, 5-((4-hydroxy-3,5-dimethylbenzyl)amino)-3-((4-(oxazol-5-yl)phenyl)amino)-1H-pyrazole-4-carboxamide] | 100 to 1000 | > 1000 | > 1000 | A (A represents Kd (JAK2): Kd (RCK)>100) | A (A represents Kd (JAK3): Kd (RCK)>100)
COc1ccccc1C(=O)Nc1ccc(Nc2n[nH]c(NCc3cc(C)c(O)c(C)c3)c2C(N)=O)cc1 [Compound 55, 5-((4-hydroxy-3,5-dimethylbenzyl)amino)-3-((4-(2-methoxybenzamido)phenyl)amino)-1H-pyrazole-4-carboxamide] | 100 to 1000 | > 1000 | > 1000 | B (B represents 10<Kd(JAK2): Kd (RCK)<100) | B (B represents 10<Kd (JAK3): Kd (RCK)<100)
Cc1cc(CNc2[nH]nc(Nc3ccc(F)cc3)c2C(N)=O)cc(C)c1O [Compound 42, 3-((4-fluorophenyl)amino)-5-((4-hydroxy-3,5-dimethylbenzyl)amino)-1H-pyrazole-4-carboxamide] | > 1000 | > 1000 | > 1000 | B (B represents 10<Kd(JAK2): Kd (RCK)<100) | B (B represents 10<Kd (JAK3): Kd (RCK)<100)
NC(=O)c1c(Nc2ccc(CN3CCOCC3)cc2)n[nH]c1NCc1ccc(O)cc1 [reference compound] | < 50 | < 50 | < 50 | D (D represents Kd(JAK2): Kd (RCK)<1) | D (D represents Kd (JAK3): Kd(RCK)<1)
Cc1cc(CNc2[nH]nc(Nc3ccc(-n4ccnc4)cc3)c2C(N)=O)cc(C)c1O [drawing 179, reference compound] | < 50 | < 50 | < 50 |  | 
CC(=O)Nc1cccc(Nc2n[nH]c(NCc3ccc(O)cc3)c2C(N)=O)c1 [reference compound] | < 50 | < 50 | < 50 | D (D represents Kd(JAK2): Kd (RCK)<1) | D (D represents Kd (JAK3): Kd(RCK)<1)
Cc1cc(CNc2[nH]nc(Nc3ccc(-c4cc[nH]n4)cc3)c2C(N)=O)cc(C)c1O [Compound 54, 3-((4-(1H-pyrazol-3-yl)phenyl)amino)-5-((4-hydroxy-3,5-dimethylbenzyl)amino)-1H-pyrazole-4-carboxamide] | 100 to 1000 | > 1000 | > 1000 | B (B represents 10<Kd(JAK2): Kd (RCK)<100) | B (B represents 10<Kd (JAK3): Kd (RCK)<100)
Cc1cc(CNc2[nH]nc(Nc3cnc(N4CCOCC4)c(Cl)c3)c2C(N)=O)cc(C)c1O [Compound 5, 3-((5-chloro-6-morpholinopyridin-3-yl)amino)-5-((4-hydroxy-3,5-dimethylbenzyl)amino)-1H-pyrazole-4-carboxamide] | 100 to 1000 | > 1000 | > 1000 | B (B represents 10<Kd(JAK2): Kd (RCK)<100) | B (B represents 10<Kd (JAK3): Kd (RCK)<100)
NC(=O)c1c(Nc2ccc(N3CCCCC3)cn2)n[nH]c1NCc1ccc(O)cc1 [reference compound] | < 50 | < 50 | < 50 | D (D represents Kd(JAK2): Kd (RCK)<1) | D (D represents Kd (JAK3): Kd(RCK)<1)
Cc1cc(Nc2n[nH]c(NCc3cc(C)c(O)c(C)c3)c2C(N)=O)cnc1N1CCOCC1 [Compound 12, 5-((4-hydroxy-3,5-dimethylbenzyl)amino)-3-((5-methyl-6-morpholinopyridin-3-yl)amino)-1H-pyrazole-4-carboxamide] | 100 to 1000 | > 1000 | > 1000 | B (B represents 10<Kd(JAK2): Kd (RCK)<100) | B (B represents 10<Kd (JAK3): Kd (RCK)<100)
NC(=O)c1c(Nc2ccc(-c3cnco3)cc2)n[nH]c1NCc1ccc(O)cc1 [reference compound] | < 50 | < 50 | < 50 | C (C represents 1<Kd (JAK2): Kd (RCK)<10) | C (C represents 1<Kd (JAK3): Kd (RCK)<10)

Second part, led by results:

Kd [1] [nM] | Kd (JAK2) [nM] | Kd (JAK3) [nM] | SMILES | RCK:JAK2 selectivity ratio (JAK2) | RCK:JAK3 selectivity ratio (JAK3)
100 to 1000 | 100 to 1000 | > 1000 | Cc1cc(CNc2[nH]nc(Nc3ccc(S(N)(=O)=O)cc3)c2C(N)=O)cc(C)c1O [Compound 48, 5-((4-hydroxy-3,5-dimethylbenzyl)amino)-3-((4-sulfamoylphenyl)amino)-1H-pyrazole-4-carboxamide] | C (C represents 1<Kd (JAK2): Kd (RCK)<10) | B (B represents 10<Kd (JAK3): Kd (RCK)<100)
< 50 | < 50 | < 50 | NC(=O)c1c(Nc2ccc(N3CCN(Cc4ccccc4)CC3)cc2)n[nH]c1NCc1ccc(O)cc1 [reference compound] | D (D represents Kd(JAK2): Kd (RCK)<1) | C (C represents 1<Kd (JAK3): Kd (RCK)<10)
100 to 1000 | > 1000 | > 1000 | Cc1cc(CNc2[nH]nc(Nc3ccc(N4CCCCC4)cc3)c2C(N)=O)cc(C)c1O [Compound 27, 5-((4-hydroxy-3,5-dimethylbenzyl)amino)-3-((4-(piperidin-1-yl)phenyl)amino)-1H-pyrazole-4-carboxamide] | B (B represents 10<Kd(JAK2): Kd (RCK)<100) | B (B represents 10<Kd (JAK3): Kd (RCK)<100)
50 to 100 | > 1000 | > 1000 | Cc1cc(Nc2n[nH]c(NCc3cc(C)c(O)c(C)c3)c2C(N)=O)ccc1N1CCOCC1 [Compound 8, 5-((4-hydroxy-3,5-dimethylbenzyl)amino)-3-((3-methyl-4-morpholinophenyl)amino)-1H-pyrazole-4-carboxamide] | B (B represents 10<Kd(JAK2): Kd (RCK)<100) | B (B represents 10<Kd (JAK3): Kd (RCK)<100)
< 50 | > 1000 | > 1000 | Cc1cc(CNc2[nH]nc(Nc3ccc(N4CCN(C(=O)N5CCCC5)CC4)cc3)c2C(N)=O)cc(C)c1O [Compound 24, 5-((4-hydroxy-3,5-dimethylbenzyl)amino)-3-((4-(4-(pyrrolidine-1-carbonyl)piperazin-1-yl)phenyl)amino)-1H-pyrazole-4-carboxamide] | B (B represents 10<Kd(JAK2): Kd (RCK)<100) | A (A represents Kd (JAK3): Kd (RCK)>100)
< 50 | < 50 | < 50 | NC(=O)c1c(Nc2ccc(N3CCS(=O)(=O)CC3)cc2)n[nH]c1NCc1ccc(O)cc1 [reference compound] | D (D represents Kd(JAK2): Kd (RCK)<1) | D (D represents Kd (JAK3): Kd(RCK)<1)
